This is an account of results in US8012959B2, “Diaminopyrimidinecarboxamide derivative” (Astellas Pharma Inc., priority 2002, dated 2011).

Test [1] concerns T cells. The experiment in a line: Th2 differentiation (IL-4 production by differentiated mouse spleen T cells, ELISA). Type of test: cell-based. The settings on record: inhibition of Th2 differentiation (IL-4 production, ELISA), C57BL/6 mouse spleen T cells. How it is done: Measurement of Th2 Differentiation
T cells were prepared by removing nylon wool (Wako Pure Chemical Industries)-adhering cells from C57BL/6 mouse (Charles River Japan) spleen cells. Using a 96 well plate to which an anti-CD3ε antibody (10 μg/ml) (Sederlane) had been immobilized in advance, T cells (2×10^5 cells/0.2 ml) were inoculated under stimulation with anti-CD28 antibody (1 μg/ml) (Pharmingen), IL-2 (10 ng/ml) (Peprotech) and IL-4 (10 ng/ml) (Peprotech). After 2 days of the culturing, total volume of the cell suspension was diluted to 2 ml with a medium containing IL-2 (10 ng/ml) and IL-4 (10 ng/ml). The differentiation was induced by further carrying out the culturing for 3 days. By counting the cell density, the cells after differentiation were adjusted to 1×10^6 cells/ml and inoculated into a 96 well plate immobilized with the anti-CD3 ε antibody, in order to induce IL-4 production. The supernatant after 24 hours of the stimulation was recovered, and the IL-4 production was determined by an ELISA method. The antibody used in the ELISA was purchased from Pharmingen. Also, an HRPO-labeled streptoavidin (Amersham Pharmacia) was used in the detection of biotinylated antibody, and a peroxidase color developing reagent (Sumitomo Bakelite) was used in the HRPO color development. In the case of the evaluation of compounds, compound dilutions were added to the wells before the addition of T cells, at the time of the dilution 2 days later, compounds equivalent to the initial concentration were added. Also, regarding the dilution of compounds, dilution was carried out using 10% FBS-containing RPMI 1640 such that the final concentration of DMSO in which each compound was dissolved became 0.1% or less. Inhibitory activity of each tested compound was evaluated in which the IL-4 production when DMSO was added instead of the compound was regarded as 100%, and the IL-4 production when anti-CD28 antibody and IL-4 were not added as 0%.
Background: ELISA stands for enzyme-linked immunosorbent assay.

The target in test [2] is T1, STAT 6 (Mus musculus, UniProt P52633).
T1 construct: An STAT 6 reporter cell CI/FW4 was constructed by the above operation; endogenous in cells; host or cells: CI/FW4 (FW4 cell stably carrying the pGL2-CI/bs luciferase reporter)
T1 sequence (P52633 1-837): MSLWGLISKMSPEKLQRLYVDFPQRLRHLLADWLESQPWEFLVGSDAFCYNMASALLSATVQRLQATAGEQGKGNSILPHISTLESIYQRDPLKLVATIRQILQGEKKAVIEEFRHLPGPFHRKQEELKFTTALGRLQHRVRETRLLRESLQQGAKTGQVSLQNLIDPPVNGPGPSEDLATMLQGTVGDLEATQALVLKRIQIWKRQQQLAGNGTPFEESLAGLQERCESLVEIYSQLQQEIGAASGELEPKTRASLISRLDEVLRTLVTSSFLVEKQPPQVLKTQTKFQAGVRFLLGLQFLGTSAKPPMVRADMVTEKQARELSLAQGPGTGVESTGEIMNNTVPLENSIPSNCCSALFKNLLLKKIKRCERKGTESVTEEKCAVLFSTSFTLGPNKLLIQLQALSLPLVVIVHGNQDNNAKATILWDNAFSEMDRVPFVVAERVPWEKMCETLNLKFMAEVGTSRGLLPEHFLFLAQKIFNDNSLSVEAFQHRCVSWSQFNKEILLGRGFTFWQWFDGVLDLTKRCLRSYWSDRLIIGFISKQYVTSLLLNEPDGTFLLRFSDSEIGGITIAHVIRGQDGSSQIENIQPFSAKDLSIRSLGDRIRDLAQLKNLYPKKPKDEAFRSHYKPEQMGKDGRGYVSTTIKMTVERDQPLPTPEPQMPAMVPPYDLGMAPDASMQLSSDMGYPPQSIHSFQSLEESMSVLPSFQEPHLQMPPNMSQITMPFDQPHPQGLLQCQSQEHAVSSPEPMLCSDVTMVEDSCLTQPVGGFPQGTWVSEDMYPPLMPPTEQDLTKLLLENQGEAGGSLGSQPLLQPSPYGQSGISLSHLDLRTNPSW
Kind of test: STAT 6-dependent reporter activity (IL-4-stimulated CI/FW4 luciferase reporter cell). It counts as cell-based, human. The method, then: Measurement of STAT 6-Dependent Reporter Activity 1) Construction of STAT 6 Reactive Reporter Plasmid A STAT 6 reporter plasmid pGL2-CI was prepared by the following method. […] Also, […] sequence DNA molecules (SEQ ID NOs:3 and 4) contained in the adenovirus major late promoter were annealed and inserted into BglII and HindIII sites of the same vector. Thereafter, pGL2-CI/bs was constructed by inserting the blasticidin resistance gene of pUCSV-BD (Funakoshi) into BamHI site of the constructed pGL2-CI. 2) Construction of STAT 6 Reporter Cell Gene transfer of […] into a human IL-4 reactive cell FW4 cell (Mol. Cell. Biol., 14: 5433-5440) was carried out by the electroporation method (320 V, 960 μF/0.4 cm cuvette (Nippon Bio-Rad Laboratories)), and 6 μg/ml of blasticidin (Funakoshi) was added 40 hours thereafter to select a resistant cell. Confirmation of constant transfer of the reporter plasmid was carried out by detecting luciferase induce by IL-4 stimulation. An STAT 6 reporter cell CI/FW4 was constructed by the above operation. 3) STAT Reporter Assay Using CI/FW4 Cell Stimulation of the CI/FW4 cell (1×10^4 cells/0.1 ml) with 10 ng/ml of human IL-4 (Genzyme Techne) was carried out using a white 96 well plate (Nunc). In the case of the evaluation of compounds, compound dilutions were added to the wells before inoculating the cells into the 96 well plate. […] Thereafter, 50 μl of a luciferase substrate solution (10 mM Tris-HCl pH 7.8, 5 mM luciferin, 2 mM coenzyme A, 2 mM ATP, 0.5 mM MgCl2 and 2 mM Mg(OH)2) was added, followed by stirring for 1 minute. Then, the luciferase activity was measured using ML3000 luminometer (Dynatech Laboratories, Inc). Inhibitory activities of tested compounds were evaluated in which the luminescence intensity (relative light unit: […] The results are shown in the following Table 26.

With `Cc1cccc(Nc2nc(N[C@@H]3CCCC[C@@H]3N)ncc2C(N)=O)c1` (relative stereo) [ref 2, 2-(cis-2-aminocyclohexylamino)-4-(3-methylanilino)pyrimidine-5-carboxamide, reference compound], the “Inh (%)” value in test [1] is 0%. Take `NC(=O)c1cnc(NCCc2ccc(O)c(Cl)c2)nc1NCc1ccccc1` [Example 1, 4-benzylamino-2-{[2-(3-chloro-4-hydroxyphenyl)ethyl]amino}pyrimidine-5-carboxamide]: the “Inh (%)” value in test [1] was 88%. In addition, the inhibition at 0.1 µM in test [2] (inhibition ratio at 0.1 μM compound, IL-4-stimulated CI/FW4 cell, luciferase) worked out at 89%. In addition, the inhibition at 1 µM in test [2] (inhibition ratio at 1 μM compound, IL-4-stimulated CI/FW4 cell, luciferase) was found to be 100%. `NC(=O)c1cnc(NCCc2cc(Cl)c(O)c(Cl)c2)nc1NCc1ccccc1` [Example 16]: the “Inh (%)” value in test [1] is on record as 82%. The “inhibition of STAT 6-dependent reporter activity (activity similar to the compounds of Table 26)” value in test [2] (CI/FW4 cell, 10 ng/ml human IL-4, luciferase) is on record as “good activity”. On to `Cc1cccc(Nc2nc(NCCN)ncc2C(N)=O)c1` [ref 1, 2-(2-aminoethylamino)-4-(3-methylanilino)pyrimidine-5-carboxamide, reference compound], for which, in test [1], the “Inh (%)” value was 0%.

Broadly, the inhibition is how much of the control response was suppressed.
